Data taken from patent publication US20030022821A1, “Bioactive peptides” (priority 1998, published 2003).
Values after ≈ are worked out from the molar mass of the structure shown. Like-named read-outs stand apart in the source and are kept apart here. Ends that are not written are not given here. Peptide text beside a SMILES is read from it. * marks the point of attachment. Acm = CC(=O)NC*

How the values were obtained:
Format in all cases: cell-based
human red blood cells = experiment: Hemolytic assay; details: for % Hemolysis 10 μg/ml / % Hemolysis 100 μg/ml: red cells of human
Description: The hemolytic activities of the peptides were determined using fresh human red blood cells. 8 ml blood was taken from a healthy person. 4 ml blood was transferred to a polycarbonate tube containing heparin to a final concentration of 10 U/ml, and the remaining 4 ml blood was transferred to a glass tube containing EDTA with final concentration of 15% EDTA. The erythrocytes were isolated from heparin-treated blood by centrifugation in 1500 rpm for 10 min and washed three times with phosphate-buffered saline (PBS) to remove plasma and buffy coat. The cell pellet was resuspended in PBS to make the final volume of 4 ml. The peptide was diluted to a concentration of 2 mg/ml and 0.1 mg/ml. The peptide was further diluted to the concentrations as stated in Table 15. For each tube PBS was added first, then RBCs and peptide solutions. The hematocrit in the blood treated with EDTA was determined after 30 min with Sysmex K-1000, and the resuspended RBCs were diluted into 10% hematocrit. RBCs in PBS (1%) with and without peptides (Table 15) were incubated in a shaker at […] for 1 hour and then centrifuged at 4000 rpm for 5 min. The supernatant were carefully transferred to new polycarbonate tubes and the absorbance of the supernatant was measured at 540 nm. Baseline hemolysis was hemoglobin released in the presence of PBS, and 100% hemolysis was hemoglobin released in the presence of 0.1% Triton X-100.

[1] = tested on: Escherichia coli ATCC 25922
Method in brief: (§1)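 MIC values came from a standard microdilution method using mid-log bacteria at 2×10^6 CFU/ml in 1% Bacto Peptone water. HPLC confirmed actual peptide concentrations in solution, given possible adherence of the cationic peptides to plastic.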

[2] = tested on: Staphylococcus aureus ATCC 25923
Method in brief: as §1

Compound	% Hemolysis 10 μg/ml (human red blood cells)	% Hemolysis 100 μg/ml (human red blood cells)	MIC E. coli ([1]; ATCC 25922)	MIC S. aureus ([2]; ATCC 25923)	other results
H-FKARRWAWRMKKLGA-OH [LFB A3, 7]	–	–	–	–	EC 50 (human red blood cells): >1000 µg/mL; EC50 (human red blood cells): > 525 µM
CSCC[C@H](NC(=O)[C@H](CCCNC(=N)N)NC(=O)[C@H](Cc1c(S(=O)(=O)c2c(C)c(C)c3c(c2C)CCC(C)(C)O3)[nH]c2ccccc12)NC(=O)[C@H](CCC(N)=O)NC(=O)[C@H](Cc1ccc2ccccc2c1)NC(=O)[C@H](CCCNC(=N)N)NC(=O)[C@H](CCCNC(=N)N)NC(=O)[C@H](CSCNC(C)=O)NC(=O)[C@H](CCCCN)NC(=O)[C@@H](N)Cc1ccccc1)C(=O)N[C@@H](CCCCN)C(=O)N[C@@H](CCCCN)C(=O)N[C@@H](CC(C)C)C(=O)NCC(=O)N[C@@H](C)C(=O)O [LFB Nal6 PMC]	2.8%	17.8%	25 µg/mL (≈ 10.7 µM)	20 µg/mL (≈ 8.54 µM)	–
CSCC[C@H](NC(=O)[C@H](CCCNC(=N)N)NC(=O)[C@H](Cc1c[nH]c2ccccc12)NC(=O)[C@H](CCC(N)=O)NC(=O)[C@H](Cc1c[nH]c2ccccc12)NC(=O)[C@H](CCCNC(=N)N)NC(=O)[C@H](CC(C)C)NC(=O)[C@H](CSCNC(C)=O)NC(=O)[C@H](CCCCN)NC(=O)[C@@H](N)CCC(=O)O)C(=O)N[C@@H](CCCNC(=N)N)C(=O)N[C@@H](CCCCN)C(=O)N[C@H](C(=O)NCC(=O)NCC(=O)O)C(C)C [LFM R9 W8] (H-EKC(Acm)LRWQWRMRKVGG-OH; N-terminus assumed)	3.1%	4.59%	500 µg/mL (≈ 249 µM)	>1000 µg/mL	–
CSCC[C@@H](NC(=O)[C@@H](CCCCN)NC(=O)[C@@H](CCCCN)NC(=O)[C@@H](CC(C)C)NC(=O)CNC(=O)[C@@H](C)N)C(=O)N[C@H](CCCNC(=N)N)C(=O)N[C@H](Cc1c[nH]c2ccccc12)C(=O)N[C@H](CCC(N)=O)C(=O)N[C@H](Cc1c[nH]c2ccccc12)C(=O)N[C@H](CCCNC(=N)N)C(=O)N[C@H](CCCNC(=N)N)C(=O)N[C@H](CSCNC(C)=O)C(=O)N[C@H](CCCCN)C(=O)N[C@H](Cc1ccccc1)C(=O)O [Retro-Enantio LFB 17-31]	3.31%	–	–	–	MIC E. coli ([1]; Table 3): 6.25 µg/mL (≈ 3.03 µM); MIC S. aureus ([2]; Table 3, unit assumed): 80 µg/mL (≈ 38.7 µM)
CSCC[C@H](NC(=O)[C@H](C)NC(=O)[C@H](Cc1c[nH]c2ccccc12)NC(=O)[C@H](CCC(N)=O)NC(=O)[C@H](Cc1c[nH]c2ccccc12)NC(=O)[C@H](CCCNC(=N)N)NC(=O)[C@H](CC(C)C)NC(=O)[C@H](CSCNC(C)=O)NC(=O)[C@H](CCCCN)NC(=O)[C@@H](N)CCC(=O)O)C(=O)N[C@@H](CCCNC(=N)N)C(=O)N[C@@H](CCCCN)C(=O)N[C@H](C(=O)NCC(=O)NCC(=O)O)C(C)C [LFM A9 W8] (H-EKC(Acm)LRWQWAMRKVGG-OH; N-terminus assumed)	2.5%	3.5%	>1000 µg/mL	>1000 µg/mL	–
YRAWRWAWRWR-NH2 [LFB 17-27 A3, 7 R2, 11 W4, 10 Y1 NH2, TYR-ARG-ALA-TRP-ARG-TRP-ALA-TRP-ARG-TRP-ARG-CONH2]	–	–	–	–	EC50 (human red blood cells): 400 ± 200 µM; EC 50 (human red blood cells; Table 13, toxicity (hemolysis)): 700 ± 300 µg/mL; MIC E. coli ([1]; Table 14, peptides with a proportion of D amino acids): 10 µg/mL; MIC S. aureus ([2]; Table 14): 2.5 µg/mL
CSCC[C@H](NC(=O)[C@H](CCCNC(=N)N)NC(=O)[C@H](Cc1c[nH]c2ccccc12)NC(=O)[C@H](CCC(N)=O)NC(=O)[C@H](C)NC(=O)[C@H](CCCNC(=N)N)NC(=O)[C@H](CCCNC(=N)N)NC(=O)[C@H](CSCNC(C)=O)NC(=O)[C@H](CCCCN)NC(=O)[C@@H](N)Cc1ccccc1)C(=O)N[C@@H](CCCCN)C(=O)N[C@@H](CCCCN)C(=O)N[C@@H](CC(C)C)C(=O)NCC(=O)N[C@@H](C)C(=O)O [LFB A6] (H-FKC(Acm)RRAQWRMKKLGA-OH; N-terminus assumed)	2.78%	3.27%	>200 µg/mL	>200 µg/mL	–
RRWQWRMKKLG-OH [LFB 20-30]	2.16%	3.1%	40 µg/mL	>100 µg/mL	–
CSCC[C@H](NC(=O)[C@H](CCC(=O)O)NC(=O)[C@H](Cc1c[nH]c2ccccc12)NC(=O)[C@H](CCC(N)=O)NC(=O)[C@H](Cc1c[nH]c2ccccc12)NC(=O)[C@H](CCCNC(=N)N)NC(=O)[C@H](CC(C)C)NC(=O)[C@H](CSCNC(C)=O)NC(=O)[C@H](CCCCN)NC(=O)[C@@H](N)CCC(=O)O)C(=O)N[C@@H](CCCNC(=N)N)C(=O)N[C@@H](CCCCN)C(=O)N[C@H](C(=O)NCC(=O)NCC(=O)O)C(C)C [LFM W8, H2N-Glu-Lys-Cys-Leu-Arg-Trp-Gln-Trp-Glu-Met-Arg-Lys-Val-Gly-Gly-COOH] (H-EKC(Acm)LRWQWEMRKVGG-OH)	2.6%	4.8%	>1000 µg/mL	1000 µg/mL (≈ 506 µM)	–
CSCC[C@H](NC(=O)[C@H](CCCNC(=N)N)NC(=O)[C@H](Cc1ccc2ccccc2c1)NC(=O)[C@H](CCC(N)=O)NC(=O)[C@H](Cc1c[nH]c2ccccc12)NC(=O)[C@H](CCCNC(=N)N)NC(=O)[C@H](CCCNC(=N)N)NC(=O)[C@H](CSCNC(C)=O)NC(=O)[C@H](CCCCN)NC(=O)[C@@H](N)Cc1ccccc1)C(=O)N[C@@H](CCCCN)C(=O)N[C@@H](CCCCN)C(=O)N[C@@H](CC(C)C)C(=O)NCC(=O)N[C@@H](C)C(=O)O [LFB Nal8]	3%	4.7%	10 µg/mL (≈ 4.82 µM)	50 µg/mL (≈ 24.1 µM)	–
YRMWRWAWRWR-NH2 [LFB 17-27 A7 M3 R2, 11 W4, 10 Y1 NH2]	–	–	–	–	EC50 (human red blood cells): 291 ± 91 µM; EC 50 (human red blood cells; Table 13, toxicity (hemolysis)): 510 ± 160 µg/mL
CSCC[C@H](NC(=O)[C@H](CCCNC(=N)N)NC(=O)[C@H](Cc1ccc2ccccc2c1)NC(=O)[C@H](CCC(N)=O)NC(=O)[C@H](Cc1c(S(=O)(=O)c2c(C)c(C)c3c(c2C)CCC(C)(C)O3)[nH]c2ccccc12)NC(=O)[C@H](CCCNC(=N)N)NC(=O)[C@H](CCCNC(=N)N)NC(=O)[C@H](CSCNC(C)=O)NC(=O)[C@H](CCCCN)NC(=O)[C@@H](N)Cc1ccccc1)C(=O)N[C@@H](CCCCN)C(=O)N[C@@H](CCCCN)C(=O)N[C@@H](CC(C)C)C(=O)NCC(=O)N[C@@H](C)C(=O)O [LFB Nal8 PMC]	6.96%	18.86%	20 µg/mL (≈ 8.54 µM)	10 µg/mL (≈ 4.27 µM)	–
CSCC[C@H](NC(=O)[C@H](CCCNC(=N)N)NC(=O)[C@H](Cc1c[nH]c2ccccc12)NC(=O)[C@H](CCC(N)=O)NC(=O)[C@H](Cc1ccc2ccccc2c1)NC(=O)[C@H](CCCNC(=N)N)NC(=O)[C@H](CCCNC(=N)N)NC(=O)[C@H](CSCNC(C)=O)NC(=O)[C@H](CCCCN)NC(=O)[C@@H](N)Cc1ccccc1)C(=O)N[C@@H](CCCCN)C(=O)N[C@@H](CCCCN)C(=O)N[C@@H](CC(C)C)C(=O)NCC(=O)N[C@@H](C)C(=O)O [LFB Nal6]	2.2%	4.4%	20 µg/mL (≈ 9.63 µM)	75 µg/mL (≈ 36.1 µM)	–
CSCC[C@H](NC(=O)[C@H](CCC(=O)O)NC(=O)[C@H](Cc1c[nH]c2ccccc12)NC(=O)[C@H](CCC(N)=O)NC(=O)[C@H](Cc1c[nH]c2ccccc12)NC(=O)[C@H](CCCNC(=N)N)NC(=O)[C@H](CC(C)C)NC(=O)[C@H](CSCNC(C)=O)NC(=O)[C@H](CCCCN)NC(=O)[C@@H](N)CCC(=O)O)C(=O)N[C@@H](CCCNC(=N)N)C(=O)N[C@@H](CCCCN)C(=O)N[C@@H](Cc1ccc(O)cc1)C(=O)NCC(=O)NCC(=O)O [LFM W8 Y13] (H-EKC(Acm)LRWQWEMRKYGG-OH; N-terminus and C-terminus assumed)	–	–	>1000 µg/mL	>1000 µg/mL	–
TKCFQWQRNMRKVRG [Native LFH]	–	–	–	–	MIC E. coli ([1]; Table 4): > 1000 µg/mL; MIC S. aureus ([2]; Table 4, unit assumed): > 1000 µg/mL
CSCC[C@H](NC(=O)[C@H](CCCNC(=N)N)NC(=O)[C@H](Cc1c[nH]c2ccccc12)NC(=O)[C@H](CCC(N)=O)NC(=O)[C@H](Cc1c[nH]c2ccccc12)NC(=O)[C@H](CCCNC(=N)N)NC(=O)[C@H](Cc1ccccc1)NC(=O)[C@H](CSCNC(C)=O)NC(=O)[C@H](CCCCN)NC(=O)[C@@H](N)CCCCN)C(=O)N[C@@H](CCCCN)C(=O)N[C@@H](CCCCN)C(=O)N[C@@H](CC(C)C)C(=O)NCC(=O)N[C@@H](C)C(=O)O [LFB F4K1] (H-KKC(Acm)FRWQWRMKKLGA-OH; N-terminus assumed)	–	–	–	–	MIC E. coli ATCC 25922 ([1]; ATCC 25922): 20 µg/mL; MIC E. coli ATCC 25922 ([1]; Table 1, value in brackets): 10 µM; MIC E. coli ([1]; Table 12): 20 µg/mL (≈ 9.82 µM); MIC S. aureus ATCC 25923 ([2]; ATCC 25923): 200 µg/mL; MIC S. aureus ATCC 25923 ([2]; Table 1, value in brackets): 100 µM; MIC S. aureus ([2]; Table 12): 200 µg/mL (≈ 98.2 µM)
CSCC[C@H](NC(=O)[C@H](CCCNC(=N)N)NC(=O)[C@H](Cc1c[nH]c2ccccc12)NC(=O)[C@H](CCC(N)=O)NC(=O)[C@H](Cc1c[nH]c2ccccc12)NC(=O)[C@H](CCCNC(=N)N)NC(=O)[C@H](CCCNC(=N)N)NC(=O)[C@H](CSCNC(C)=O)NC(=O)[C@H](C)NC(=O)[C@@H](N)Cc1ccccc1)C(=O)N[C@@H](CCCCN)C(=O)N[C@@H](CCCCN)C(=O)N[C@@H](CC(C)C)C(=O)NCC(=O)N[C@@H](C)C(=O)O [LFB A2] (H-FAC(Acm)RRWQWRMKKLGA-OH)	–	–	80 µg/mL (≈ 39.8 µM)	>200 µg/mL	–
